According to patent publication EP0496162A2, “Peptide inhibitors of RAS-GAP interaction” (MERCK & CO. INC., priority 1990, dated 1992):
No end group written: not given here.

Assays:
[1] = biological target: T1, S. cerevisiae adenylyl cyclase (Ras Dependent, strain FlD reconstituted with purified Ras) (Saccharomyces cerevisiae, UniProt P08678); assay: Yeast adenylyl cyclase assay, reconstitution of FlD membranes with purified Ras protein; assay type: biochemical; details: part B, FlD membranes with 5 µM purified Ras protein, peptide 10 µM
T1 construct: Since these membranes contain adenylyl cyclase, but are lacking Ras protein; endogenous in cells; host or cells: membranes of S. cerevisiae strain FlD
From the text: (§1) Another Ras-dependent enzymatic assay was used to extend the observed ability of the peptides of the present invention to inhibit Ras function. This system, yeast adenylyl cyclase assay, measures the Ras-dependent conversion of ATP into cyclic AMP (cAMP). […] Furthermore, in S. cerevisiae, regulation of cAMP metabolism appears to be a major function of Ras. This assay system was used to extend the observed Ras inhibitory activity of the peptides of the present invention, to a Ras function which is GAP-unrelated. S. cerevisiae strain FlD lacks functional Ras proteins, however FlD cells have functional adenylyl cyclase in their cell membrane. […] Similarly, a recombinant S. cerevisiae strain MY1186, lacks yeast Ras proteins but expresses mammalian Ras protein which functions with adenylyl cyclase to regulate cAMP metabolisim in the yeast cells. […] In contrast, S. cerevisiae strain JC377-10B contains a mutant form of adenylyl cyclase which constitutively converts ATP into cAMP with or without Ras.
(§2) Ras peptides were tested at the indicated concentrations for inhibition of S. cerevisiae adenylyl cyclase activity. […] Ras-independent activity was assayed with membranes from strain JC377-10B (ras-minus, constitutively active adenylyl cyclase).
(§3) Yeast strain FlD, MY1186 and JC377-10B, were grown in YEHD medium at 30°C. Membrane fractions were prepared from cultures grown to an A₆₆₀ of 0.5 to 1.0 by glusulase digestion [Casperson, G.F. et al., (1983), J. Biol. Chem., 258, pp. 7911-7914], Dounce homogenization of the spheroplasts in buffer containing 50 mM sodium MES [2(N-morpholino) ethanesulfonic acid] […] Adenylyl cyclase assays (100-µL reaction volume) measured the conversion of [α-³²P]ATP to [³²P]cAMP at 30°C, using 50 µg to 100 µg of membrane protein in assays using membranes from yeast strains MY1186 and JC377-10B.. […] Since these membranes contain adenylyl cyclase, but are lacking Ras protein, stimulation of adenylyl cyclase activity may be measured following reconstitution with purified Ras complexed with GTP. […]

[2] = biological target: T2, S. cerevisiae adenylyl cyclase (Ras Dependent, strain MY1186) (Saccharomyces cerevisiae, UniProt P08678); assay: Yeast adenylyl cyclase assay, Ras-dependent, membranes from strain MY1186 (expresses mammalian Ras); assay type: biochemical; details: part A
T2 construct: S. cerevisiae strain MY1186 lacks endogenous yeast Ras, expresses viral Ha-Ras, and has a Ras-dependent adenylyl cyclase; endogenous in cells; host or cells: membranes of recombinant S. cerevisiae strain MY1186 (cyclase endogenous; Ha-Ras heterologously expressed)
From the text: as §1, §2, §3

T2 sequence (P08678 whole entry): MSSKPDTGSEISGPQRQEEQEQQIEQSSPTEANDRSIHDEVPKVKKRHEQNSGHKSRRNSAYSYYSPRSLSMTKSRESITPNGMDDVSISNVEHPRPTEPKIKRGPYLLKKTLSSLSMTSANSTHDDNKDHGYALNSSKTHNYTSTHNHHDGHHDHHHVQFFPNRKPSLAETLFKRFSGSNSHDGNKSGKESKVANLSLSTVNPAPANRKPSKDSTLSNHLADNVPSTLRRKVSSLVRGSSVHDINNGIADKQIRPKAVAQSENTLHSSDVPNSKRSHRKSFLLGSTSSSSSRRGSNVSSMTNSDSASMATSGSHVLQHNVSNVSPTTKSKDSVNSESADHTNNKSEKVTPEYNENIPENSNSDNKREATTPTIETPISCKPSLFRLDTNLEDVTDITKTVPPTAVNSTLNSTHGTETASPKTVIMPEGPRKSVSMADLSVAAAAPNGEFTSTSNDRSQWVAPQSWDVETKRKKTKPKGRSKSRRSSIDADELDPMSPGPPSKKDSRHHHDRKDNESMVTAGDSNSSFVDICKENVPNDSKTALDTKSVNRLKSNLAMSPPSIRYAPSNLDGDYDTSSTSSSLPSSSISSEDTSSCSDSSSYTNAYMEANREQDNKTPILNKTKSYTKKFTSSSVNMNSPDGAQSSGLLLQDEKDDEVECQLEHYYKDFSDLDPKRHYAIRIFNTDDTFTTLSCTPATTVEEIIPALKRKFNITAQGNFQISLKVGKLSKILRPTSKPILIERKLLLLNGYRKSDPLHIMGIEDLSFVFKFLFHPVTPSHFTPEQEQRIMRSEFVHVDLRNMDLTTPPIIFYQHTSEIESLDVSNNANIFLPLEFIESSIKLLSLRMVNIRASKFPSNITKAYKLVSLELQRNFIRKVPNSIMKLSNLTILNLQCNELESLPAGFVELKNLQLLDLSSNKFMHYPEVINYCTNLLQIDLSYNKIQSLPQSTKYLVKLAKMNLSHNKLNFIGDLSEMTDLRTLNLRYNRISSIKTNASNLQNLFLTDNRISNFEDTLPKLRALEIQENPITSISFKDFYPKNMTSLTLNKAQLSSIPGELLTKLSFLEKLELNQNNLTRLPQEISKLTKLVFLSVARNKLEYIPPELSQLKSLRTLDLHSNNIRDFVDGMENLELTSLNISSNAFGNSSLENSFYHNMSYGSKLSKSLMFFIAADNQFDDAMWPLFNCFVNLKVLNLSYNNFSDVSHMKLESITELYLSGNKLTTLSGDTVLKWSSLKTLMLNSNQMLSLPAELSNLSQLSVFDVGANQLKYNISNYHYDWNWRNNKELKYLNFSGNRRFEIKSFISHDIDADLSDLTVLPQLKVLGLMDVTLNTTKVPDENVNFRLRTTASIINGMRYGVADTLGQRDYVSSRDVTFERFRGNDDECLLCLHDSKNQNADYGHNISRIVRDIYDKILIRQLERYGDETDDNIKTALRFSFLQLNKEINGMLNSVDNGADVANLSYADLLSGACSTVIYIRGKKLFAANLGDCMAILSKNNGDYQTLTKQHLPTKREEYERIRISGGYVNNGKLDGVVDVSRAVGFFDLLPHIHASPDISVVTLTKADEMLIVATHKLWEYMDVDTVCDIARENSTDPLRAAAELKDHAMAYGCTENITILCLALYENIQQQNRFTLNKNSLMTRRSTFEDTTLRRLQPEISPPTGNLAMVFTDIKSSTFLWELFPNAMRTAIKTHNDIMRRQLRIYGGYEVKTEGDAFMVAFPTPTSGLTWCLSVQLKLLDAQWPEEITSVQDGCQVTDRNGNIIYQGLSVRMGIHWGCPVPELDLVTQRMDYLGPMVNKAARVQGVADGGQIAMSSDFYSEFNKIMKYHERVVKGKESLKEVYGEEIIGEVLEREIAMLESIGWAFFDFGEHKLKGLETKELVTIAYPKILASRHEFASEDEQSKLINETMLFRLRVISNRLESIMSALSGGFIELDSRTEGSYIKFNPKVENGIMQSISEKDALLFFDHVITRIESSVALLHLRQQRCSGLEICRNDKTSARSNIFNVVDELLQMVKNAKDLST
T1 sequence (P08678 whole entry): as above

CC[C@H](C)[C@H](NC(=O)[C@H](CC(C)C)NC(=O)[C@H](CCC(N)=O)NC(=O)[C@@H](NC(=O)[C@@H](NC(=O)[C@H](CC(C)C)NC(=O)[C@H](C)NC(=O)[C@@H](N)CO)[C@@H](C)O)[C@@H](C)CC)C(=O)N[C@@H](CCC(N)=O)C(=O)N[C@@H](CC(N)=O)C(=O)N[C@@H](Cc1c[nH]cn1)C(=O)N[C@@H](Cc1ccccc1)C(=O)N[C@H](C(=O)N[C@@H](CC(=O)O)C(=O)N[C@@H](CCC(=O)O)C(=O)N[C@@H](Cc1ccc(O)cc1)C(=O)O)C(C)C [Ras 17-32]
%Inhibition of Adenylyl Cyclase Activity Ras Dependent [1]: 26 ± 2% | %Inhibition of Adenylyl Cyclase Activity Ras Dependent ([2]; peptide 19 µM): 34%

LIQNHFVDEYDPTIE [Ras 23-37]
%Inhibition of Adenylyl Cyclase Activity Ras Dependent [1]: 5 ± 1% | %Inhibition of Adenylyl Cyclase Activity Ras Dependent ([2]; peptide 100 µM): 2%

SALTIQLIQNHFVDEYDPTIE [Ras 17-37]
%Inhibition of Adenylyl Cyclase Activity Ras Dependent ([2]; peptide 40 µM): 58 ± 2%
